Data on nine molecules can be found in patent US20060276394A1, “METHODS AND COMPOSITIONS FOR TREATING NEUROLOGICAL DISORDERS” (WYETH, priority 2002, published 2006).

Entries after “also recorded” stand apart in the source; their conditions may differ.

The subject of one data set is IGFBP-2 mRNA. Kind of data set: transcriptional profiling of amygdala of drug-treated rats. Type of data set: in vivo. The conditions noted are these: rat amygdala. An excerpt: In the short-term 3 day treatment, it is possible that the drugs might exert their antidepressant effects through decreasing IGFBP-2 expression, which would increase bioavailability of IGF-I. The long-term treatment is of equivalent magnitude but in the opposite direction. This may represent a compensatory mechanism in response to the short-term drug effects.

The test system of a further data set is IGF-I mRNA. Description: microarray profiling of antidepressant-treated C6 glioma cell lines. Type of data set: cell-based. Particulars: quiescent C6 glioma cell lines, 24 hours. An excerpt: Glial cell cultures were used because they lack endogenous serotonin and norepinephrine transporter mechanisms. Thus, any transcriptional effects caused by the antidepressant drugs are due to actions beyond the level of the serotonin and norepinephrine receptors and respective transporters. […] Antidepressant drugs may therefore be acting on the glia, which produces the neurotrophic factor IGF-I, which acts in a juxtacrine manner to stimulate neurogenesis.

Data set [1] deals with Swiss-Webster mice. Kind of data set: mouse tail suspension test (TST). Particulars: for immobility: 20 minutes prior to testing. Type of data set: in vivo. The method, then: To assess the on potential antidepressant effects of NBI-31772, Swiss-Webster mice were analyzed using the Tail Suspension Test (TST). In this test, mice were suspended upside down by taping their tails with adhesive laboratory tape (VWR International of West Chester, Pa.) to a flat metal bar connected to a strain gauge within a sound-attenuating chamber (Med Associates Inc. of St. Albans, Vt.). The bar is positioned such that a mouse is not able to grasp the top or the sides of the chamber. The total time spent immobile during a 6-minute test session is automatically recorded. Compounds that decrease the total immobility time compared to control animals are predicted to have antidepressant-like effects. In each study, mice were given a single icv injection of test compound or vehicle 20 minute prior to the test session. Mice were housed individually during the interval between injection and behavioral testing.
One-way analysis of variance (ANOVA) was performed on behavioral data to determine effects of NBI-31772 treatment, followed by Least Significant Difference Tests for a post hoc analysis. The data is presented as the mean±SEM. […] This decrease in immobility indicates antidepressant-like effects similar to that seen with IGF-1.
The mouse tail suspension test was performed and statistical analyses conducted as described in Example 11.

Data set [2] concerns Swiss-Webster mice. Kind of data set: mouse four-plate test (FPT), punished crossings. Type of data set: in vivo. The method, then:
(§1) To assess the anxiolytic activity of NBI-31772, mice receiving intraventricular administration of NBI-31772 were tested in an elevated zero maze (EZM) or in a four-plate appratus (FPT). NBI-31722 (availabe from Calbiochem/EMD Biosciences, Inc. of San Diego, Calif.) was administered in a volume of 2 μl. Balb/C mice were used for the elevated zero maze and Swiss-Webster mice were used for the four-plate test. One-way analysis of variance (ANOVA) was performed on behavioral data to determine effects of test compound treatments, followed by Least Significant Difference Tests for a post hoc analysis. Data is presented as the mean±SEM.
The four-plate apparatus consists of a Plexiglas chamber (18×25×16 cm) with a floor consisting of four rectangular metal plates (8×11 cm), which are separated from one another by a 4 mm gap. All four plates are wired to a shock generator (0.8 mA, 0.5 second; Med Associates Inc. of St. Albans, Vt.). In each experiment, mice are placed into the chamber and given an 18-second habituation period followed by a 1-minute test. During the test, the animal's innate motivation to explore the novel environment is suppressed by the delivery of a mild foot shock every time the animal moves from one plate to another (referred to as a ‘punished crossing’). Following each punished crossing, there is a 3-second time out where the mouse may cross the plates without receiving another shock. An experimenter blind to the dosing conditions administers shocks, and a computer records the total number of punished crossings an animal makes during the testing period. Clinically effective classes of anxiolytic compounds such as benzodiazepines, selective serotonin reuptake inhibitors, or 5-HT1A […] produce increases in punished crossings, which is indicative of anxiolytic-like activity.
In each study, mice were given a single icv injection or two icv injections of test compounds or vehicle 20 minutes prior to the test session, and the number of punished crosses during the 1-minute test was recorded. For experiments where 2 icv injections were given, an animal received an injection in both the left and right ventricles, with the second injection given immediately after the first injection. A 26-gauge Hamilton syringe with 3-mm needle was used for injections and the injection site was visualized by locating the middle of the invisible line that runs diagonally from the left eye to the right ear. Mice were housed individually during the interval between injections and behavioral testing.
The mouse four-plate test was performed and statistical analyses conducted as described in Example 9.
In these studies, NBI-31772 and JB1, an IGF-1R antagonist, were administered centrally (icv) with the two injections occurring sequentially. Compounds were administered 20 minutes prior to testing and the number of punished crosses during the 1-minute test was recorded.

For data set [3] the following is noted: cited from earlier work.
In another data set the test system is IGFBP-1 to IGFBP-6. Particulars: cited from earlier work.
For another data set, the system named is adult rat dentate gyrus. Description: BrdU-positive cell proliferation in adult rat dentate gyrus after chronic icv infusion. Type of data set: in vivo. The conditions noted are these: 10 days icv via minipump, sacrifice Day 11. The protocol:
Previous investigators have shown that IGF-1 administered either intracerebroventricular (icv) or systemically increases proliferation and survival, and (Aberg, et al, 2000; Lichtenwalner et al, 2000). Furthermore, systemic IGF promotes neuronal differentiation. The present study confirms and extends these previous findings. Rats were given IGF-1 for 10 days via a cannula attached to a semiosmotic minipump. On Day 11, animals were sacrificed and quantitative analysis was performed to determine the number of BrdU-positive cells as a measure of cell proliferation. A 66% increase in BrdU-positive cells per hippocampus compared to saline-infused animals was observed (FIG. 10).

For data set [4] the following is noted: rats, subcutaneous deposition; cited from earlier work.
The target of the next data set is T1, IGFBP-2 (Homo sapiens, UniProt P18065).
T1 sequence (P18065 with tags, fused parts or gaps DUP19-21/R317C): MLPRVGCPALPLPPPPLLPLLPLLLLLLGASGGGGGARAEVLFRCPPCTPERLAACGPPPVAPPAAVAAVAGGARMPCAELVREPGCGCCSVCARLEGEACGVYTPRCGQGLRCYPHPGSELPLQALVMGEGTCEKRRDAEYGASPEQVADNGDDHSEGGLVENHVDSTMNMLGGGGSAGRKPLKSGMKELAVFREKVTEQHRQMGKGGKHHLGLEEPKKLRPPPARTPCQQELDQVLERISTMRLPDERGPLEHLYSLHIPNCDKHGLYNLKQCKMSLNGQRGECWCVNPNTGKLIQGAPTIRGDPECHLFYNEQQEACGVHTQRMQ
Particulars: cited from earlier work.

Another data set has as its system Balb/C mice. Kind of data set: mouse elevated zero maze (EZM). Type of data set: in vivo. The protocol: as §1
These effects are similar to those seen with reference anxiolytic compounds chlordiazepoxide and diazepam (Ring et al., Psychopharmacology (Berl.), 2006, 185(2):218-225) and are indicative of anxiolytic-like activity of NBI-31772 in the EZM.

The next data set concerns fibroblast. Particulars: IGF-I released from binding protein complex; cited from earlier work.

Take `C[C@]12CC[C@H]3[C@@H](CC[C@@H]4C[C@@](O)(C(F)(F)F)CC[C@@H]43)[C@@H]1CC[C@@H]2C(=O)CO` [GMA-839]: the “expression of IGFBP-2 mRNA compared to vehicle alone” value with IGFBP-2 mRNA (3 day treatment) was “decreased expression”; with IGFBP-2 mRNA (14 day treatment), “increased expression”.
Take `CNCCC(Oc1ccc(C(F)(F)F)cc1)c1ccccc1` (stereo not shown) [fluoxetine]: in the data set with IGF-I mRNA, the “expression of IGF-I mRNA” value is given as “increased expression”.
`O=C1CC2(CCCC2)CC(=O)N1CCCCN1CCN(c2ncccn2)CC1` [Buspirone]: the “expression of IGFBP-2 mRNA compared to vehicle alone” value is reported as “decreased expression” in the data set with IGFBP-2 mRNA (3 day treatment) and “increased expression” with IGFBP-2 mRNA (14 day treatment).
Consider `COc1ccc(C(CN(C)C)C2(O)CCCCC2)cc1` (stereo not shown) [venlafaxine], for which the “expression of IGF-I mRNA” value in the data set with IGF-I mRNA was “increased expression”.
As for “IGF-1: recombinant human IGF-1, insulin-like growth factor, available from Bachem Biosciences”, the “decrease in immobility from vehicle” value in the data set on Swiss-Webster mice [1] (10 μg dose) was 33%. Further, in the data set on Swiss-Webster mice [1] (1-10 μg), the immobility result was “dose-dependent decrease”. Further, the “increase in punished crossings from vehicle” value in the data set with Swiss-Webster mice [2] (0.01 μg dose, central administration) stood at 32%. Also, the “effects in the four-plate test (FIG. 13)” value in the data set on Swiss-Webster mice [2] (0.1 μg) is listed as “anxiolytic-like effects”. Besides, the punished crossings result in the data set on Swiss-Webster mice [2] (0.03-1.0 μg, central administration 20 minutes prior to testing) is reported as “significant overall effect”. In addition, the serum half-life in data set [3] is 10 min. Further, the “inhibition of 125I IGF-I binding / interaction of IGF-I with IGFBP-1 to 6” value in the data set with IGFBP-1 to IGFBP-6 is listed as “dose-dependent inhibition”. The “increase in BrdU-positive cells per hippocampus compared to saline-infused animals” value in the data set with adult rat dentate gyrus was found to be 66%. Further, in [4], the “concentrations in the CNS relative to those in the serum” value is reported as “about 0.5%” and the “plasma concentrations at which uptake into CSF reached a plateau” value is “above 150 ng/ml”.
As for `Fc1ccc([C@@H]2CCNC[C@H]2COc2ccc3c(c2)OCO3)cc1` [Paroxetine], the “expression of IGFBP-2 mRNA compared to vehicle alone” value in the data set on IGFBP-2 mRNA (3 day treatment) was “decreased expression”; in the data set with IGFBP-2 mRNA (14 day treatment), “increased expression”.
Consider “complex of IGF-I and IGFBP-3: dimeric complex of IGF-I and IGFBP-3 in serum”, for which the serum half-life in data set [3] was 30 min.
Consider `CNCCCN1c2ccccc2CCc2ccccc21` [desipramine], for which the “expression of IGF-I mRNA” value in the data set on IGF-I mRNA is recorded as “increased expression”.
`O=C(O)c1cc2cc(O)c(O)cc2c(C(=O)c2ccc(O)c(O)c2)n1` [NBI-31772]: the “activity toward IGFBP-2 compared to the other five IGFBPs” value on IGFBP-2 is “highest activity”. The values for the decrease in immobility with Swiss-Webster mice [1] (3 μg icv), with Swiss-Webster mice [1] (10 μg icv) and with Swiss-Webster mice [1] (30 μg icv) were 32%, 35% and 38%, respectively. For the same molecule, in the data set with Swiss-Webster mice [1] (0.3-30 μg icv), the immobility result is reported as “dose-dependent decrease”. The “increase in punished crossings” value with Swiss-Webster mice [2] (10 μg icv) is reported as 22%; with Swiss-Webster mice [2] (30 μg icv), 32%. The “increase in punished crossings compared to vehicle group” value with Swiss-Webster mice [2] (30 μg icv, two sequential icv injections study) was determined as 24%. Moreover, the “seizures, percentage of animals” value amounted to 20% in the data set with Swiss-Webster mice [2] (56 μg icv) and 40% in the data set with Swiss-Webster mice [2] (100 μg icv). The punished crossings result is listed as “dose-dependent increase” in the data set on Swiss-Webster mice [2] (3.0-30 μg, icv); “an increase in punished crossings was seen” in the data set with Swiss-Webster mice [2] (higher doses 56 and 100 μg icv, not used for analysis). Moreover, the “increase in % time in the open arms compared to the vehicle group” value with Balb/C mice (0.3 μg icv) was 100%; with Balb/C mice (1 μg icv), 100%; with Balb/C mice (3 μg icv), 81%; in the data set with Balb/C mice (10 μg icv), 119%. For the same molecule, in the data set with Balb/C mice (0.1-10 μg, icv, 20 minutes prior to testing), the “% time spent in the open arms of the maze” value is on record as “dose-dependent increase”. The “dissociation of IGF-I from its binding protein complex” value with IGFBP-1 to IGFBP-6 is “dissociates”. The “inhibition of 125I IGF-I binding / interaction of IGF-I with IGFBP-1 to 6” value in the data set with IGFBP-1 to IGFBP-6 is “inhibits; also recorded: dose-dependent inhibition”. Also, in the data set with fibroblast, the “biological activity of the released IGF-I” value is “biologically active”.
